# Measured values as given in ChEMBL document CHEMBL5236553, “Advances in the development of HIV integrase strand transfer inhibitors” (Eur J Med Chem, 2021).
# Legend:
# [1] = molecular target: Human immunodeficiency virus type 1 integrase (Human immunodeficiency virus 1, UniProt Q7ZJM1); assay: Inhibition of HIV-1 integrase strand transfer activity
# [2] = test system: Human immunodeficiency virus; assay: Antiviral activity against wild type HIV-1 integrase; assay type: functional, organism-based; settings: Human immunodeficiency virus 1
# [3] = test system: Human immunodeficiency virus; assay: Antiviral activity against HIV-1 harboring integrase Q148R mutant; assay type: functional, organism-based; settings: Human immunodeficiency virus 1
# [4] = test system: Human immunodeficiency virus; assay: Antiviral activity against HIV-1 harboring integrase G140S/Q148H double mutant; assay type: functional, organism-based; settings: Human immunodeficiency virus 1
# [5] = test system: Human immunodeficiency virus; assay: Antiviral activity against HIV-1 harboring integrase N155H mutant; assay type: functional, organism-based; settings: Human immunodeficiency virus 1
# [6] = test system: Human immunodeficiency virus; assay: Binding affinity to HIV-1 wildtype integrase DNA complex assessed as dissociative half life
# [7] = test system: Human immunodeficiency virus; assay: Antiviral activity against HIV-1 harboring integrase L74M mutant; assay type: functional, organism-based; settings: Human immunodeficiency virus 1
# [8] = test system: Human immunodeficiency virus; assay: Antiviral activity against HIV-1 harboring integrase M50I mutant; assay type: functional, organism-based; settings: Human immunodeficiency virus 1
# [9] = test system: Human immunodeficiency virus; assay: Antiviral activity against HIV-1 harboring integrase G140S/Q148H mutant; assay type: functional, organism-based; settings: Human immunodeficiency virus 1
# [10] = test system: Human immunodeficiency virus; assay: Antiviral activity against HIV-1 harboring integrase […]/N155H mutant; assay type: functional, organism-based; settings: Human immunodeficiency virus 1
# [11] = test system: Human immunodeficiency virus; assay: Antiviral activity against HIV-1 harboring integrase E138K/Q148K mutant; assay type: functional, organism-based; settings: Human immunodeficiency virus 1
# [12] = molecular target: T1, Integrase (Human immunodeficiency virus 1, UniProt T1QYY3, G140S/Q148H); assay: Inhibition of HIV-1 integrase RAL-resistant G140S/Q148H double mutant
# [13] = molecular target: Human immunodeficiency virus type 1 integrase (Human immunodeficiency virus 1, UniProt Q7ZJM1, G118R); assay: Inhibition of HIV-1 integrase DTG-resistant G118R mutant
# [14] = molecular target: Human immunodeficiency virus type 1 integrase (Human immunodeficiency virus 1, UniProt Q7ZJM1, R263K); assay: Inhibition of HIV-1 integrase DTG-resistant R263K mutant
# [15] = molecular target: Human immunodeficiency virus type 1 integrase (Human immunodeficiency virus 1, UniProt Q7ZJM1, H51Y/R263K); assay: Inhibition of HIV-1 integrase DTG-resistant H51Y/R263K double mutant
# [16] = molecular target: T1, Integrase; assay: Inhibition of HIV-1 integrase G140S/Q148H double mutant
# [17] = test system: Human immunodeficiency virus; assay: Antiviral activity against HIV-1 harboring integrase E92Q mutant; assay type: functional
# [18] = test system: Integrase (Human immunodeficiency virus 1); assay: Inhibition of HIV-1 integrase-catalyzed strand transfer
# [19] = test system: Human immunodeficiency virus; assay: Fold change in antiviral EC50 against HIV-1 harboring integrase Y143R mutant; settings: Human immunodeficiency virus 1
# [20] = test system: Human immunodeficiency virus; assay: Fold change in antiviral EC50 against HIV-1 harboring integrase Q148K mutant; settings: Human immunodeficiency virus 1
# [21] = Clearance in rat plasma; assay type: ADME, cell-free
# [22] = Clearance in dog plasma; assay type: ADME, cell-free, Canis lupus familiaris
# [23] = test system: Human immunodeficiency virus; assay: Antiviral activity against HIV-1 assessed as inhibition of HIV infection in human T cells by cell based assay; assay type: functional, organism-based; settings: Human immunodeficiency virus 1, T-cell
smiles,measurement,setting,value
O=C(NCc1ccc(F)c(Cl)c1)c1c(O)c2cccnc2n(O)c1=O,IC50,[1],270 nM
O=C(NCc1ccc(F)c(Cl)c1)c1cc2cccnc2n(O)c1=O,IC50,[1],140 nM
CC1(C)OCCn2c1nc(C(=O)NCc1ccc(F)cc1)c(O)c2=O,EC50,[2],3 nM
same,EC50,[3],300 nM
same,EC50,[4],> 8000 nM
same,EC50,[5],140 nM
C[C@@H]1CCO[C@H]2Cn3cc(C(=O)NCc4ccc(F)cc4F)c(=O)c(O)c3C(=O)N12 [DOLUTEGRAVIR],T1/2,[6],71 h
same,EC50,[7],2.2 nM
same,EC50,[8],2.1 nM
same,EC50,[9],3.9 nM
same,EC50,[10],4 nM
same,EC50,[11],25 nM
O=C(NCc1ccc(F)cc1F)c1cc2cccnc2n(O)c1=O,IC50,[1],410 nM
O=C(NCc1ccc(F)c(F)c1)c1cc2cccnc2n(O)c1=O,IC50,[1],170 nM
O=C(NCc1ccc(F)cc1F)c1c(O)c2cccnc2n(O)c1=O,IC50,[1],550 nM
O=C(NCc1c(F)cc(F)cc1F)c1cn2c(c(O)c1=O)C(=O)N1[C@H]3CC[C@H](C3)O[C@@H]1C2 [BICTEGRAVIR],EC50,[12],≤ 5 nM
same,EC50,[13],≤ 5 nM
same,EC50,[14],≤ 5 nM
same,EC50,[15],≤ 5 nM
same,EC50,[16],3.1 nM
Cc1nnc(C(=O)NC(C)(C)c2nc(C(=O)NCc3ccc(F)cc3)c(O)c(=O)n2C)o1,fold change (FC),[17],3
same,IC50,[18],10 nM
C[C@H](O)N1C(=O)c2c3c(c(O)c(=O)n2[C@]12CC[C@H]1C[C@H]12)C(=O)N(Cc1ccc(F)c(Cl)c1)CC3,EC50,[3],1.5 nM
same,EC50,[5],1.5 nM
same,fold change (FC),[17],1.5
same,fold change,[19],1
same,fold change,[20],1
Nc1c(C(=O)NCc2ccc(F)cc2F)c(=O)n(O)c2ncc(CCCCCCO)cc12,EC50,[7],1.6 nM
same,EC50,[8],1.3 nM
same,EC50,[9],0.9 nM
same,EC50,[10],1.1 nM
same,EC50,[11],16 nM
O=C(NCc1ccc(F)cc1F)c1cc2cccc(O)c2n(O)c1=O,IC50,[1],1800 nM
CC1(C)OCCn2c1nc(-c1ncc(Cc3ccc(F)cc3)[nH]1)c(O)c2=O,EC50,[2],6 nM
same,EC50,[3],33 nM
same,EC50,[4],320 nM
same,EC50,[5],2 nM
CC(C)n1c(C(=O)N(C)C)c2c(c(O)c1=O)C(=O)N(Cc1ccc(F)c(Cl)c1)CC2,fold change (FC),[17],1
same,clearance,[21],0.138 L/h/kg
same,clearance,[22],0.132 L/h/kg
same,fold change,[19],2
same,fold change,[20],1
CN1C(=O)c2c3c(c(O)c(=O)n2[C@]12CC[C@H]1C[C@@]12CO)C(=O)N(Cc1ccc(F)c(Cl)c1)CC3,fold change (FC),[17],1
same,fold change,[19],1
same,fold change,[20],1
O=C(NCc1ccc(F)c(F)c1)c1c(O)c2cccnc2n(O)c1=O,IC50,[1],400 nM
COc1cc2c(cc1Cc1cccc(Cl)c1F)c(=O)c(C(=O)O)cn2[C@H](CO)C(C)C,EC50,[23],0.9 nM
